One data set deals with LDLs. Briefly: Quantities of drug incorporated into LDLs. Format: physicochemical. As to conditions: ametantrone and mitoxantrone and esters; per particle of LDL; ametantrone esters by optical density at 614 nm; incubation 18 hours at 37° C. The protocol:
One mg of drug is dissolved in the minimum quantity of an organic solvent (chloroform) then the solvent is evaporated under reduced pressure.
Two hundred μl of washed Endolipide are then added. The tube is shaken vigorously, swirling for 1 minute to dissolve the drug in the lipid phase. The LDLs are then added in a quantity containing 1 mg of proteins, assayed by the method of Lowry modified by Peterson (see Lowry et al., J. Biol. Chem. 193, 265-275 (1951)) and 5 ml of LPDS. After stirring, the mixture is incubated for 18 hours at 37° C.
The LDLs are then separated by ultracentrifugation according to a KBr density gradient (centrifugation for 24 hours at 4° C. and 40,000 rpm).
The modified LDLs are then dialyzed against an NaCl solution, 140 mM, pH 8, then filtered under sterile conditions (0.22 μm) and stored under nitrogen.
drugs (on the modified LDLs): the ametantrone esters were tested after precipitation of apolipoprotein B with isopropanol. For this purpose, 100 μl of LDL are added to 100 μl of isopropanol and stirred for 1 minute then left to stand overnight at 10° C. with stirring. The mixture is then centrifuged for 30 minutes at 300 rpm. The supernatant is removed and evaporated. The residue is treated with 1 ml of chloroform. The optical density is read off at a wavelength of 614 nm and compared to a reference range of the drug.
The elliptinium esters are tested by HPLC according to the technique described by Samadi-Baboli (thesis cited above).
Consider `CC/C=C\C/C=C\C/C=C\CCCCCCCC(=O)OCCNCCNc1ccc(NCCNCCOC(=O)CCCCCCC/C=C\C/C=C\C/C=C\CC)c2c1C(=O)c1ccccc1C2=O` [Ametantrone dilinolenate], for which the “quantity of drug incorporated into LDLs (uptake)” value (from here on “quantity”) came to 90 molecules/particle.

Take `CCCCCCCC/C=C\CCCCCCCC(=O)OCCNCCNc1ccc(NCCNCCOC(=O)CCCCCCC/C=C\CCCCCCCC)c2c1C(=O)c1ccccc1C2=O` [Ametantrone dioleate]: the “quantity” value was found to be 2 molecules/particle.

`CCCCCCCCCCCCCCCC(=O)OCCNCCNc1ccc(NCCNCCOC(=O)CCCCCCCCCCCCCCC)c2c1C(=O)c1ccccc1C2=O` [Ametantrone dipalmitate]: the “quantity” value was determined as 2 molecules/particle.

With `CCCCCCCCCCCCCCCCCC(=O)OCCNCCNc1ccc(NCCNCCOC(=O)CCCCCCCCCCCCCCCCC)c2c1C(=O)c1ccccc1C2=O` [Ametantrone distearate], the “quantity” value worked out at 1 molecules/particle.

Consider `CC/C=C\C/C=C\C/C=C\CCCCCCCC(=O)OCCNCCNc1ccc(NCCNCCO)c2c1C(=O)c1ccccc1C2=O` [Ametantrone monolinolenate], for which the “quantity” value is listed as 80 molecules/particle.

For the compound `CCCCCCCC/C=C\CCCCCCCC(=O)OCCNCCNc1ccc(NCCNCCO)c2c1C(=O)c1ccccc1C2=O` [Ametantrone monooleate], the “quantity” value was found to be 2 molecules/particle.

Take `CCCCCCCCCCCCCCCC(=O)OCCNCCNc1ccc(NCCNCCO)c2c1C(=O)c1ccccc1C2=O` [Ametantrone monopalmitate]: the “quantity” value amounted to 2 molecules/particle.

For `CCCCCCCCCCCCCCCCCC(=O)OCCNCCNc1ccc(NCCNCCO)c2c1C(=O)c1ccccc1C2=O` [Ametantrone monostearate], the “quantity” value was determined as 1 molecules/particle.

In the case of `O=C1c2ccccc2C(=O)c2c(NCCNCCO)ccc(NCCNCCO)c21` [Ametantrone, reference compound], the “quantity” value is 1 molecules/particle.

In the case of `CC/C=C\C/C=C\C/C=C\CCCCCCCC(=O)OCCNCCNc1ccc(NCCNCCOC(=O)CCCCCCC/C=C\C/C=C\C/C=C\CC)c2c1C(=O)c1c(O)ccc(O)c1C2=O` [Mitoxantrone dilinolenate], the “quantity” value worked out at 22 molecules/particle.

`O=C1c2c(O)ccc(O)c2C(=O)c2c(NCCNCCO)ccc(NCCNCCO)c21` [Mitoxantrone, reference compound]: the “quantity” value was 1 molecules/particle.

Still in this data set, the particulars now being: elliptinium esters, tested by HPLC; incubation 18 hours at 37° C.
On to `CCCCCCCC/C=C\CCCCCCCC(=O)Oc1ccc2[nH]c3c(C)c4cc[n+](C)cc4c(C)c3c2c1` [Elliptinium oleate], for which the “quantity” value is reported as 83 μg per mg of protein.

As to `CCCCCCCCCCCCCCCC(=O)Oc1ccc2[nH]c3c(C)c4cc[n+](C)cc4c(C)c3c2c1` [Elliptinium palmitate], the “quantity” value is on record as 58 μg per mg of protein.

Consider `CCCCCCCCCCCCCCCCCC(=O)Oc1ccc2[nH]c3c(C)c4cc[n+](C)cc4c(C)c3c2c1` [Elliptinium stearate], for which the “quantity” value is 37 μg per mg of protein.

The values above are taken from patent US5324821A, “Method of preparing a lipoprotein modified by incorporation of a lipophilic active substance” (Universite Droit et Sante Lille II, priority 1990, dated 1994).
